From patent publication US6262084A, “Compounds that inhibit the binding of integrins to their receptors” (Texas Biotechnology Corporation, priority 1999, dated 2001)

Molecular target: T1, α4β1 integrin (Homo sapiens, UniProt P05556+P13612)
T1 construct: Ramos cells fluorescently labeled with calcein; endogenous in cells; host or cells: Ramos cells
Assay: Inhibition of adhesion of calcein-labeled Ramos cells to CS1 (fibronectin) peptide-conjugated ovalbumin
Format: cell-based
Details: for inhibition at 100 µM: Ramos, compound at a concentration of 100 μM, read-out: % A (percent inhibition of cell adhesion); for IC50: dose required to give 50% inhibition, Ramos cell adhesion to CS1-ovalbumin, 30 minutes at 37° C
How it was run: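 Calcein-labelled Ramos cells (2.5×10^5/well) in TBS with 1 mM MgCl2, CaCl2 and MnCl2 adhered to CS1 peptide–ovalbumin coated at 5 μg/ml for 30 min at 37 °C, with or without compound. After washing, bound cells were lysed and read by fluorescence. IC50 is the dose giving 50% inhibition, and % inhibition was measured at 100 μM.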

T1 sequence (P13612 34-1032): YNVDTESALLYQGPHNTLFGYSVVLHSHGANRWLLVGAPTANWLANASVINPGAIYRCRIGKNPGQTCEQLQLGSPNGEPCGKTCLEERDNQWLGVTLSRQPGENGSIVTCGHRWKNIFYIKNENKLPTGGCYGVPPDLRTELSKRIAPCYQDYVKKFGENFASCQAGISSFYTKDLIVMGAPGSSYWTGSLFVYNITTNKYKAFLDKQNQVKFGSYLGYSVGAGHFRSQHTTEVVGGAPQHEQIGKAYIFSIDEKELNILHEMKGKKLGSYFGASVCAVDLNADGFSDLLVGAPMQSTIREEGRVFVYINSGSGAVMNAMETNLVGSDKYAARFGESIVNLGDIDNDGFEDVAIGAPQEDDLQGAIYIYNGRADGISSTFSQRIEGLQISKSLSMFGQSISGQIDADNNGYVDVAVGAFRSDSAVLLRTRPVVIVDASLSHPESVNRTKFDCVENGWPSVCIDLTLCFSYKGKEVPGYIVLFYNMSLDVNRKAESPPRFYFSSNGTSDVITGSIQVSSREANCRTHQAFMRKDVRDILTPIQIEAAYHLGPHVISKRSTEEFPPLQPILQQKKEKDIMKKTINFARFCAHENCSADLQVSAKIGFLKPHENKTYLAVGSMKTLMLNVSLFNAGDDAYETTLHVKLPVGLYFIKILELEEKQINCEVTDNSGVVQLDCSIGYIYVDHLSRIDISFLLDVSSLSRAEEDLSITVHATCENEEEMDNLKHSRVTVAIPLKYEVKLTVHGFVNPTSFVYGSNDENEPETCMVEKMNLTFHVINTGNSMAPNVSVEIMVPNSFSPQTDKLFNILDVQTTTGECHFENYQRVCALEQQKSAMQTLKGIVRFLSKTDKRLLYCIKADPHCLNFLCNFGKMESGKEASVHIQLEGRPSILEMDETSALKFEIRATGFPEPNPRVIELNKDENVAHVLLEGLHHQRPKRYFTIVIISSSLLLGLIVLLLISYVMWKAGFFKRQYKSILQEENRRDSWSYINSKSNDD
T1 sequence (P05556 21-798): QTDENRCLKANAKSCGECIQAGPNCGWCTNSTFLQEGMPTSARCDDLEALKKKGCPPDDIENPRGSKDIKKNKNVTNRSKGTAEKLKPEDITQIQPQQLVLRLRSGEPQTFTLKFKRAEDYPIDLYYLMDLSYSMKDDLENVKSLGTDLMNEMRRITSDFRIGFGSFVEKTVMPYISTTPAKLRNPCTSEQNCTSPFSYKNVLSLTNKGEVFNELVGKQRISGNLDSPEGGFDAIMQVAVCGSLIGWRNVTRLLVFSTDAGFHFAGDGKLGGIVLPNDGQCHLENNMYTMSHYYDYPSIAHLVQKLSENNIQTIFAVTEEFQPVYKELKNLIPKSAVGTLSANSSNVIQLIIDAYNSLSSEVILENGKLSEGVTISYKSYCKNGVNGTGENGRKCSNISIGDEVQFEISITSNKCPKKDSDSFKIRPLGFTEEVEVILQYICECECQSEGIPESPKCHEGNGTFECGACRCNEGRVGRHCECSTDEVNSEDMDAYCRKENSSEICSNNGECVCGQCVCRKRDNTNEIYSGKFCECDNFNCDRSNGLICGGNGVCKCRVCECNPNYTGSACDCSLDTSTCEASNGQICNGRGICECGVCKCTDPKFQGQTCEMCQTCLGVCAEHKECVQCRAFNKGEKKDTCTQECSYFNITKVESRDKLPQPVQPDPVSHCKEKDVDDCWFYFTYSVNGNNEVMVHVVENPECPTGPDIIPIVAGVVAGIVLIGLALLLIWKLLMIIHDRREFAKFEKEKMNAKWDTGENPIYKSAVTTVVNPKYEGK

Structure (SMILES) | inhibition at 100 µM (Table 1) [%] | IC50 (Table 1) [µM] | IC50 (Table 2) [µM]
CCCC[C@@H](COCc1cccs1)NC(=O)N[C@@H](CC(=O)O)c1ccc2c(c1)OCO2 [Compound 22, (3S)-3-(1,3-benzodioxol-5-yl)-3-{[({(1S)-1-[(2-thienylmethoxy)methyl]pentyl}amino)carbonyl]amino}propanoic acid] | 100 | 1.5 | –
CCSC[C@@H](COCc1ccccc1)OC(=O)N[C@@H](CC(=O)O)c1ccc2c(c1)OCO2 [(3S)-3-(1,3-benzodioxol-5-yl)-3-{[({(1R)-2-(benzyloxy)-1-[(ethylthio)methyl]ethyl}oxy)carbonyl]amino}propanoic acid] | 100 | 12 | –
Cc1ccccc1CNc1ccc(CNC(=O)[C@H](CCCCNC(=O)OCc2ccccc2)NC(=O)N[C@@H](CC(=O)O)c2ccc3c(c2)OCO3)cc1 [(9S,13S)-13-(1,3-benzodioxol-5-yl)-9-[({4-[(2-methylbenzyl)amino]benzyl}amino)carbonyl]-3,11-dioxo-1-phenyl-2-oxa-4,10,12-triazapentadecan-15-oic acid] | 100 | 0.0004 | –
CSCC[C@@H](CSc1ccccc1)N(C)C(=O)N[C@@H](CC(=O)O)c1ccc2c(c1)OCO2 [(3S)-3-(1,3-benzodioxol-5-yl)-3-{[(methyl{(1S)-3-(methylsulfanyl)-1-[(phenylsulfanyl)methyl]propyl}amino)carbonyl]amino}propanoic acid] | 78 | 35 | –
CCCC[C@H](NC(=O)N[C@@H](CC(=O)O)c1ccc2c(c1)OCO2)C(=O)Nc1ccc(C(C)=O)cc1 [Compound 36, 3-(3S)-3-(1,3-benzodioxol-5-yl)-3-([((1S)-1-[(4-acetylphenyl)amino]carbonylpentyl)amino]carbonylamino)propanoic acid] | – | – | 1
COc1ccc(SC[C@H](CCSC)NC(=O)N[C@@H](CC(=O)O)c2ccc3c(c2)OCO3)cc1 [(3S)-3-(1,3-benzodioxol-5-yl)-3-[({[(1S)-1-{[(4-methoxyphenyl)sulfanyl]methyl}-3-(methylsulfanyl)propyl]amino}carbonyl)amino]propanoic acid] | 100 | 7 | –
CSCC[C@@H](COc1ccccc1)NC(=O)N[C@@H](CC(=O)O)c1ccc2c(c1)OCO2 [(3S)-3-(1,3-benzodioxol-5-yl)-3-[({[(1S)-3-(methylsulfanyl)-1-(phenoxymethyl)propyl]amino}carbonyl)amino]propanoic acid] | 100 | 20 | –
CSCC[C@@H](CSc1ccc(NS(C)(=O)=O)cc1)NC(=O)N[C@@H](CC(=O)O)c1ccc2c(c1)OCO2 [(3S)-3-(1,3-benzodioxol-5-yl)-3-{[({(1S)-3-(methylsulfanyl)-1-[({4-[(methylsulfonyl)amino]phenyl}sulfanyl)methyl]propyl}amino)carbonyl]amino}propanoic acid] | 100 | 0.5 | –
O=C(O)C[C@H](NC(=O)N[C@@H](CCCCNC(=O)OCc1ccccc1)C(=O)NCc1cccs1)c1ccc2c(c1)OCO2 [Compound 27, (9S,13S)-13-(1,3-benzodioxol-5-yl)-3,11-dioxo-1-phenyl-9-{[(2-thienylmethyl)amino]carbonyl}-2-oxa-4,10,12-triazapentadecan-15-oic acid] | 100 | 0.2 | –
Cc1ccc(S(=O)(=O)NC[C@@H](CSc2ccccc2)NC(=O)N[C@@H](CC(=O)O)c2ccc3c(c2)OCO3)cc1 [(3S)-3-(1,3-benzodioxol-5-yl)-3-{[({(1S)-2-{[(4-methylphenyl)sulfonyl]amino}-1-[(phenylthio)methyl]ethyl}amino)carbonyl]amino}propanoic acid] | 98 | 10 | –
CSCC[C@@H](CSc1ccc(Cl)cc1)NC(=O)N[C@@H](CC(=O)O)c1ccc2c(c1)OCO2 [(3S)-3-(1,3-benzodioxol-5-yl)-3-[({[(1S)-1-{[(4-chlorophenyl)sulfanyl]methyl}-3-(methylsulfanyl)propyl]amino}carbonyl)amino]propanoic acid] | 100 | 3 | –
O=C(O)C[C@H](NC(=O)NCCSc1ccccc1)c1ccc2c(c1)OCO2 [(3S)-3-(1,3-benzodioxol-5-yl)-3-[({[2-(phenylsulfanyl)ethyl]amino}carbonyl)amino]propanoic acid] | 100 | 6 | –
CCCCCCCCSC[C@@H](CSc1ccccc1)NC(=O)N[C@@H](CC(=O)O)c1ccc2c(c1)OCO2 [(3S)-3-(1,3-benzodioxol-5-yl)-3-{[({(1S)-2-(octylsulfanyl)-1-[(phenylsulfanyl)methyl]ethyl}amino)carbonyl]amino}propanoic acid] | 98 | 5 | –
CSCC[C@@H](CSc1ccc(NC(=O)Nc2ccccc2C)cc1)NC(=O)N[C@@H](CC(=O)O)c1ccc2c(c1)OCO2 [(3S)-3-(1,3-benzodioxol-5-yl)-3-{[({(1S)-3-(methylsulfanyl)-1-[({4-[(2-toluidinocarbonyl)amino]phenyl}sulfanyl)methyl]propyl}amino)carbonyl]amino}propanoic acid] | 100 | 0.0009 | –
O=C(O)C[C@H](NC(=O)N[C@@H](CCSc1ccccc1)CSc1ccccc1)c1ccc2c(c1)OCO2 [(3S)-3-(1,3-benzodioxol-5-yl)-3-{[({(1S)-3-(phenylthio)-1-[(phenylthio)methyl]propyl}amino)carbonyl]amino}propanoic acid] | 100 | 0.3 | –
CCCC[C@H](NC(=O)N[C@@H](CC(=O)O)c1ccc2c(c1)OCO2)C(=O)Nc1ccccc1C(C)=O [Compound 35, (3S)-3-(1,3-benzodioxol-5-yl)-3-([((1S)-1-[(2-acetylphenyl)amino]carbonylpentyl)amino]carbonylamino)propanoic acid] | – | – | 0.35
CSCC[C@@H](CSc1cccc(N)c1)NC(=O)N[C@@H](CC(=O)O)c1ccc2c(c1)OCO2 [(3S)-3-[({[(1S)-1-{[(3-aminophenyl)thio]methyl}-3-(methylthio)propyl]amino}carbonyl)amino]-3-(1,3-benzodioxol-5-yl)propanoic acid] | 100 | 0.3 | –
COC(=O)NCCCC[C@H](NC(=O)N[C@@H](CC(=O)O)c1ccc2c(c1)OCO2)C(=O)NCCc1ccc(O)cc1 [(9S,13S)-13-(1,3-benzodioxol-5-yl)-9-{[(4-hydroxyphenethyl)amino]carbonyl}-3,11-dioxo-2-oxa-4,10,12-triazapentadecan-15-oic acid] | 100 | 6 | –
O=C(O)C[C@H](NC(=O)N[C@@H](CCCCNC(=O)OCc1ccccc1)C(=O)NCc1cccs1)C(=O)O [(2S)-2-({[((1S)-5-{[(benzyloxy)carbonyl]amino}-1-{[(2-thienylmethyl)amino]carbonyl}pentyl)amino]carbonyl}amino)butanedioic acid] | 89 | 45 | –
CCCSC[C@H](NC(=O)N[C@@H](CC(=O)O)c1ccc2c(c1)OCO2)c1ccccc1 [(3S)-3-(1,3-benzodioxol-5-yl)-3-[({[(1R)-1-phenyl-2-(propylthio)ethyl]amino}carbonyl)amino]propanoic acid] | 100 | 25 | –
CCCSC[C@@H](Cc1ccccc1)NC(=O)N[C@@H](CC(=O)O)c1ccc2c(c1)OCO2 [(3S)-3-(1,3-benzodioxol-5-yl)-3-[({[(1R)-1-benzyl-2-(propylthio)ethyl]amino}carbonyl)amino]propanoic acid] | 100 | 2 | –
